Laboratory results as given in publication PMC11823609, “Advancements in the fight against globally distributed OXA-48 carbapenemase: evaluating the new generation of carbapenemase inhibitors” (Antimicrobial Agents and Chemotherapy, 2025).
In brackets after ≈: the same amount, converted by molar mass. Read-outs that look alike come from different tables or passages of the source.

How the values were obtained:
[1] = test system: E. coli strain 264 (MLST 131, No ESBL); test: microbe, parasite or virus in culture; type: cell-based; settings: Escherichia coli, E. coli 264, read-out: MIC
Description: (§1) The efficacy of these new BLIs was also evaluated against 18 genetically diverse WGS-characterized collection of OXA-48-positive Enterobacterales recovered as part of the Carbapenem-resistant Enterobacterales Genome Database Project (https://genomes.cnag.cat/incredble) listed in Table S2 ([13]). Combinations of clinical isolates (five pairs of Klebsiella pneumoniae, two pairs of Enterobacter cloacae, and two pairs of E. coli) were chosen for analysis: (i) nine strains carrying ESBLs; and (ii) nine strains (genetically closer available strains) without ESBLs.
(§2) The MICs of each of the individual compounds (antibiotics or inhibitors) were also determined. The MICs were determined for the E. coli isogenic expressing OXA-48 (and both OXA-48 and CTX-M-14) to assess their activity against the carbapenemase; MICs were also determined for the 18 Enterobacterales clinical isolates in order to evaluate the new inhibitors against also their resistance concomitant mechanisms. The MICs were determined in triplicate experiments, and the EUCAST 13.0 clinical breakpoints were followed (http://www.eucast.org/clinical_breakpoints).
(§3) For comparative evaluation of the activity of each inhibitor alone against the carbapenemase OXA-48, all inhibitors (at 4 mg/L) were tested in the presence of a carbapenem (ertapenem, adequate substrate) and a cephalosporin (ceftazidime, poor substrate) as reporter substrates. This prevented any possible masking effect produced by the different partner antibiotics. These assays were also performed with isogenic transformants and clinical isolates.

[2] = test system: E. coli strain 224 (MLST 127, No ESBL); test: microbe, parasite or virus in culture; type: cell-based; settings: Escherichia coli, E. coli 224, read-out: MIC
Description: as §1, §2, §3

[3] = test system: K. pneumoniae strain 19 (MLST 11, ESBL); test: microbe, parasite or virus in culture; type: cell-based; settings: Klebsiella pneumoniae
Description: as §1, §2, §3

[4] = test system: K. pneumoniae strain 170 (MLST 307, No ESBL); test: microbe, parasite or virus in culture; type: cell-based; settings: Klebsiella pneumoniae, K. pneumoniae 170, read-out: MIC
Description: as §1, §2, §3

[5] = test system: K. pneumoniae strain 237 (MLST 147, No ESBL); test: microbe, parasite or virus in culture; type: cell-based; settings: Klebsiella pneumoniae, K. pneumoniae 237, read-out: MIC
Description: as §1, §2, §3

[6] = test system: K. pneumoniae strain 125 (MLST 307, ESBL); test: microbe, parasite or virus in culture; type: cell-based; settings: Klebsiella pneumoniae
Description: as §1, §2, §3

[7] = test system: K. pneumoniae strain 413 (MLST 147, ESBL); test: microbe, parasite or virus in culture; type: cell-based; settings: Klebsiella pneumoniae
Description: as §1, §2, §3

[8] = test system: E. coli strain 177 (MLST 131, ESBL); test: microbe, parasite or virus in culture; type: cell-based; settings: Escherichia coli
Description: as §1, §2, §3

[9] = test system: K. pneumoniae strain 23 (MLST 392, ESBL); test: microbe, parasite or virus in culture; type: cell-based; settings: Klebsiella pneumoniae
Description: as §1, §2, §3

[10] = test system: E. cloacae strain 272 (MLST 78, ESBL); test: microbe, parasite or virus in culture; type: cell-based; settings: Enterobacter cloacae
Description: as §1, §2, §3

[11] = test system: E. coli strain 103 (MLST 10, ESBL); test: microbe, parasite or virus in culture; type: cell-based; settings: Escherichia coli
Description: as §1, §2, §3

[12] = test system: K. pneumoniae strain 497 (MLST 11, No ESBL); test: microbe, parasite or virus in culture; type: cell-based; settings: Klebsiella pneumoniae, K. pneumoniae 497, read-out: MIC
Description: as §1, §2, §3

[13] = test system: K. pneumoniae strain 71 (MLST 15, No ESBL); test: microbe, parasite or virus in culture; type: cell-based; settings: Klebsiella pneumoniae, K. pneumoniae 71, read-out: MIC
Description: as §1, §2, §3

[14] = test system: K. pneumoniae strain 238 (MLST 15, ESBL); test: microbe, parasite or virus in culture; type: cell-based; settings: Klebsiella pneumoniae
Description: as §1, §2, §3

[15] = test system: K. pneumoniae strain 194 (MLST 392, No ESBL); test: microbe, parasite or virus in culture; type: cell-based; settings: Klebsiella pneumoniae, K. pneumoniae 194, read-out: MIC
Description: as §1, §2, §3

[16] = test system: E. cloacae strain 235 (MLST 171, ESBL); test: microbe, parasite or virus in culture; type: cell-based; settings: Enterobacter cloacae
Description: as §1, §2, §3

[17] = test system: E. cloacae strain 281 (MLST 78, No ESBL); test: microbe, parasite or virus in culture; type: cell-based; settings: Enterobacter cloacae, E. cloacae 281, read-out: MIC
Description: as §1, §2, §3

[18] = test system: E. cloacae strain 231 (MLST 171, No ESBL); test: microbe, parasite or virus in culture; type: cell-based; settings: Enterobacter cloacae, E. cloacae 231, read-out: MIC
Description: as §1, §2, §3

[19] = test system: E. coli HB4 ΔompC/F (CTX-M-14 + OXA-48); test: microbe, parasite or virus in culture; type: cell-based, Escherichia coli; settings: Escherichia coli
Description: (§4) The E. coli HB4 strain was used to gain a more complete perspective, by evaluating the involvement in resistance of a low permeability background with the carbapenemase OXA-48, as well as coproduction of an ESBL and the carbapenemase; thus, the ESBL CTX-M-14 and OXA-48 were cloned together and separately into E. coli HB4. The characteristics of these strains and transformants are summarized in Table S1, and the cloning procedures are outlined in the supplemental methods.
as §2, §3

[20] = test system: E. coli HB4 ΔompC/F (CTX-M-14); test: microbe, parasite or virus in culture; type: cell-based, Escherichia coli; settings: Escherichia coli
Description: as §4, §2, §3

[21] = test system: E. coli HB4 ΔompC/F (OXA-48); test: microbe, parasite or virus in culture; type: cell-based, Escherichia coli; settings: Escherichia coli
Description: as §4, §2, §3

[22] = test system: E. coli HB4 ΔompC/F; test: microbe, parasite or virus in culture; type: cell-based, Escherichia coli; settings: Escherichia coli
Description: as §4, §2, §3

[23] = test system: E. coli TG1 (OXA-48); test: microbe, parasite or virus in culture; type: cell-based, Escherichia coli; settings: Escherichia coli
Description: as §2, §3

[24] = test system: E. coli TG1; test: microbe, parasite or virus in culture; type: cell-based; settings: Escherichia coli
Description: as §2, §3

[25] = test system: OXA-48-producing Enterobacterales clinical isolates; test: MIC summary over clinical isolates; type: cell-based
Description: as §1, §2, §3

[26] = ertapenem alone or with BLI at 4 mg/L
[27] = BL alone or BL/BLI: AVI, REL, TAN, DUR 4 mg/L, VAB, XER 8 mg/L, ZID, NAC 1:1

Structure (SMILES) | MIC [3] [µg/mL] | MIC [6] [µg/mL] | MIC [7] [µg/mL] | MIC [8] [µg/mL] | MIC [9] [µg/mL] | MIC [10] [µg/mL] | MIC [11] [µg/mL] | MIC [14] [µg/mL] | MIC [16] [µg/mL] | MIC [19] [µg/mL] | MIC [20] [µg/mL] | MIC [21] [µg/mL] | MIC [22] [µg/mL] | MIC [23] [µg/mL] | MIC [2, 27] [µg/mL] | MIC [4, 27] [µg/mL] | MIC [5, 27] [µg/mL] | MIC [12, 27] [µg/mL] | MIC [13, 27] [µg/mL] | MIC [15, 27] [µg/mL] | also measured
C[C@@H](O)[C@H]1C(=O)N2C(C(=O)O)=C(S[C@@H]3CN[C@H](C(=O)Nc4cccc(C(=O)O)c4)C3)[C@H](C)[C@H]12 [ERT, ertapenem] | 4 | 8 | ≥ 256 | 4 | 4 | 16 | 4 | 4 | ≥ 256 | 32 (≈ 67.3 µM) | 0.5 (≈ 1.05 µM) | 32 (≈ 67.3 µM) | 0.12 (≈ 0.252 µM) | 1 (≈ 2.1 µM) |  |  |  |  |  |  | MIC [1, 26]: 4 µg/mL; MIC [2, 26]: 2 µg/mL; MIC [4, 26]: 4 µg/mL; MIC [5, 26]: 4 µg/mL; MIC [12, 26]: 8 µg/mL; MIC [13, 26]: 8 µg/mL; MIC [15, 26]: 4 µg/mL; MIC [17, 26]: 4 µg/mL; MIC [18, 26]: 8 µg/mL; MIC [24, 26]: ≤ 0.06 µg/mL
CO/N=C(\C(=O)N[C@@H]1C(=O)N2C(C(=O)[O-])=C(C[N+]3(C)CCCC3)CS[C@H]12)c1csc(N)n1 [FEP, cefepime] |  |  | 128 | ≥ 256 | 32 |  |  |  |  |  |  |  | 1 (≈ 2.08 µM) | ≤ 0.06 | 0.5 | 0.25 | 0.5 | 0.5 | 0.5 | 0.25 | MIC [24, 27]: ≤ 0.06 µg/mL
C[C@@H](O)[C@H]1C(=O)N2C(C(=O)O)=C(SCCN=CN)C[C@H]12 [IMP, imipenem] | 1 | 4 | 16 | 2 | 4 | 2 | 2 | 2 | ≥ 256 | 16 (≈ 53.4 µM) | 0.25 (≈ 0.835 µM) | 16 (≈ 53.4 µM) | ≤ 0.06 | 0.12 (≈ 0.401 µM) | 2 | 4 | 2 | 4 | 2 | 2 | MIC [1, 27]: 0.5 µg/mL; MIC [17, 27]: 8 µg/mL; MIC [18, 27]: 2 µg/mL; MIC [24, 27]: ≤ 0.06 µg/mL
C[C@@H](O)[C@H]1C(=O)N2C(C(=O)O)=C(S[C@@H]3CN[C@H](C(=O)N(C)C)C3)[C@H](C)[C@H]12 [MER, meropenem] | 1 | 2 | 16 | 0.5 | 1 | 1 | 0.25 | 1 | 128 | 32 (≈ 83.4 µM) | 0.5 (≈ 1.3 µM) | 32 (≈ 83.4 µM) | 0.12 (≈ 0.313 µM) | ≤ 0.06 | 0.5 | 1 | 1 | 1 | 2 | 2 | MIC [1, 27]: 1 µg/mL; MIC [17, 27]: 1 µg/mL; MIC [18, 27]: 1 µg/mL; MIC [24, 27]: ≤ 0.06 µg/mL
O=C(NC1CCNCC1)[C@@H]1CC[C@@H]2CN1C(=O)N2OS(=O)(=O)O [Relebactam, relebactam] | ≥ 128 | ≥ 128 | ≥ 128 | ≥ 128 | ≥ 128 | ≥ 128 | ≥ 128 | ≥ 128 | ≥ 128 | ≥ 128 | ≥ 128 | ≥ 128 | ≥ 128 | 64 (≈ 184 µM) |  |  |  |  |  |  | MIC ([1]; β-lactamase inhibitor alone): ≥ 128 µg/mL; MIC ([2]; β-lactamase inhibitor alone): ≥ 128 µg/mL; MIC ([4]; β-lactamase inhibitor alone): ≥ 128 µg/mL; MIC ([5]; β-lactamase inhibitor alone): ≥ 128 µg/mL; MIC ([12]; β-lactamase inhibitor alone): ≥ 128 µg/mL; MIC ([13]; β-lactamase inhibitor alone): ≥ 128 µg/mL; MIC ([15]; β-lactamase inhibitor alone): ≥ 128 µg/mL; MIC ([17]; β-lactamase inhibitor alone): ≥ 128 µg/mL; MIC ([18]; β-lactamase inhibitor alone): ≥ 128 µg/mL; MIC ([24]; β-lactamase inhibitor alone): 32 µg/mL (≈ 91.9 µM)
CC1(C)[C@H](C(=O)O)N2C(=O)C[C@H]2S1(=O)=O [SUL, sulbactam] | 64 | 64 | 128 | 64 | 128 | 128 | 64 | 128 | ≥ 256 | 64 (≈ 274 µM) | 32 (≈ 137 µM) | 64 (≈ 274 µM) | 32 (≈ 137 µM) | 32 (≈ 137 µM) | 128 | 64 | 64 | 128 | 128 | 64 | MIC [1, 27]: 64 µg/mL; MIC [17, 27]: 128 µg/mL; MIC [18, 27]: 64 µg/mL; MIC [24, 27]: 32 µg/mL (≈ 137 µM); MIC [25]: ≥ 64 µg/mL
